Columns and labels:
[1] = target: Glutamate receptor ionotropic, NMDA 2B (Rattus norvegicus, UniProt Q00960)
[2] = target: Glutamate receptor ionotropic, NMDA 2B (Rattus norvegicus) (UniProt Q00960); assay: Antagonist activity at rat GluN2B NMDA receptor at 50 nM incubated for 120 mins by competitive binding assay relative to control; parameters: scale not given: the % may be the effect or the level left
[3] = Neuroprotective activity against NMDA-induced cell injury in rat Hippocampal neuron cells assessed as cell viability at 0.1 uM preincubated with compound for 6 hrs followed by NMDA-addition and measured after 0.5 hrs by MTT assay relative to control; details: Hippocampal neurone, 6.5 h, read-out: Activity
[4] = Neuroprotective activity against NMDA-induced cell injury in rat Hippocampal neuron cells assessed as cell viability at 10 uM preincubated with compound for 6 hrs followed by NMDA-addition and measured after 0.5 hrs by MTT assay relative to control; details: Hippocampal neurone, 6.5 h, read-out: Activity
[5] = cells; details: Rattus norvegicus, Hippocampal neurone, 6.5 h, read-out: Activity
[6] = Cytotoxicity against mouse primary neuron cells assessed as reduction in cell viability incubated for 48 hrs by CCK-8 assay
[7] = Cytotoxicity against African green monkey Vero cells assessed as reduction in cell viability incubated for 48 hrs by CCK-8 assay
[8] = Cytotoxicity against mouse L929 cells assessed as reduction in cell viability incubated for 48 hrs by CCK-8 assay
[9] = Cytotoxicity against HEK293 cells assessed as reduction in cell viability incubated for 48 hrs by CCK-8 assay; details: human
[10] = target: Glutamate NMDA receptor; GRIN1/GRIN2B (Homo sapiens, UniProt Q05586+Q13224)
Description: Antagonist activity at GluN1/GluN2B receptor (unknown origin) expressed in HEK293 cells assessed as inhibition of receptor-mediated current by patch clamp assay

[11] = target: Voltage-gated inwardly rectifying potassium channel KCNH2 (Homo sapiens, UniProt Q12809); assay: Inhibition of hERG expressed in HEK293 cells by whole-cell manual patch-clamp assay; type: toxicity, cell-based

Chain of Glutamate receptor ionotropic, NMDA 2B (Rattus norvegicus) (Q00960 27-1482 limits assumed): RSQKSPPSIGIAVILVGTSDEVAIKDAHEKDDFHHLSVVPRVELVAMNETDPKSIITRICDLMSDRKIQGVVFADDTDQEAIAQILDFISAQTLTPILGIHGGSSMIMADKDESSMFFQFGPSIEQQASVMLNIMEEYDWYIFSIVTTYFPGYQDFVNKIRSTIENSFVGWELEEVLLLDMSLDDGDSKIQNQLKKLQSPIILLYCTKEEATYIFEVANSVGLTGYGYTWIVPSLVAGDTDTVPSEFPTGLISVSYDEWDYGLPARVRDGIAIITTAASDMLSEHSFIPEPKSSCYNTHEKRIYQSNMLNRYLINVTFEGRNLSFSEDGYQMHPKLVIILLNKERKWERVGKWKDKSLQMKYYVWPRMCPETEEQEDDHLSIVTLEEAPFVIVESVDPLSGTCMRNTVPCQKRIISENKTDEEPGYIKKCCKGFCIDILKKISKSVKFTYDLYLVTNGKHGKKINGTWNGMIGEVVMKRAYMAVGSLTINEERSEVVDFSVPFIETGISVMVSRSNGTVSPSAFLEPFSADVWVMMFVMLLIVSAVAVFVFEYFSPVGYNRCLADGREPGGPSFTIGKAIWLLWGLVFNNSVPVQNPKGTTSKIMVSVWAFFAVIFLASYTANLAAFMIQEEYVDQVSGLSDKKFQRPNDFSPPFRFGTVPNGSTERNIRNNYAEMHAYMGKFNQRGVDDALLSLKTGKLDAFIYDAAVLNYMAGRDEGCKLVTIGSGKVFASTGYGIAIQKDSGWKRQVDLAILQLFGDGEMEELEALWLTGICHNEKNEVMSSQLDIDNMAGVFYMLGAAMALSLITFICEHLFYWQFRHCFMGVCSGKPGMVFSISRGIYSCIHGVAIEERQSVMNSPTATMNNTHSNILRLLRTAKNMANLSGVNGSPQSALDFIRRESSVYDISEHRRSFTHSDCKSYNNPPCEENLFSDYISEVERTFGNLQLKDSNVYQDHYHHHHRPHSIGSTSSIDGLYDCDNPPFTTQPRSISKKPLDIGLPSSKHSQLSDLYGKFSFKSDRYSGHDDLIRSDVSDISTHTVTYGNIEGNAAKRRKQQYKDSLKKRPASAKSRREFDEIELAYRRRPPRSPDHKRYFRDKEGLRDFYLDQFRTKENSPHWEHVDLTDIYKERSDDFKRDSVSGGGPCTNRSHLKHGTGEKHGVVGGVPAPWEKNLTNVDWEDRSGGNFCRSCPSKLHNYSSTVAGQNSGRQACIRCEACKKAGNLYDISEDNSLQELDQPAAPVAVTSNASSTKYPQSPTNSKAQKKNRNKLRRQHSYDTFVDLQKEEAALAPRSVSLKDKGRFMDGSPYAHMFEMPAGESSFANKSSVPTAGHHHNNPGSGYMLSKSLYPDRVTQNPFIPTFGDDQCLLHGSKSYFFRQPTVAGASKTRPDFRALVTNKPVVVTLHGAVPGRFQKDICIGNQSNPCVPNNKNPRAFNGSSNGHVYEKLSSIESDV
Chain of Glutamate receptor ionotropic, NMDA 2B (Q00960 whole entry): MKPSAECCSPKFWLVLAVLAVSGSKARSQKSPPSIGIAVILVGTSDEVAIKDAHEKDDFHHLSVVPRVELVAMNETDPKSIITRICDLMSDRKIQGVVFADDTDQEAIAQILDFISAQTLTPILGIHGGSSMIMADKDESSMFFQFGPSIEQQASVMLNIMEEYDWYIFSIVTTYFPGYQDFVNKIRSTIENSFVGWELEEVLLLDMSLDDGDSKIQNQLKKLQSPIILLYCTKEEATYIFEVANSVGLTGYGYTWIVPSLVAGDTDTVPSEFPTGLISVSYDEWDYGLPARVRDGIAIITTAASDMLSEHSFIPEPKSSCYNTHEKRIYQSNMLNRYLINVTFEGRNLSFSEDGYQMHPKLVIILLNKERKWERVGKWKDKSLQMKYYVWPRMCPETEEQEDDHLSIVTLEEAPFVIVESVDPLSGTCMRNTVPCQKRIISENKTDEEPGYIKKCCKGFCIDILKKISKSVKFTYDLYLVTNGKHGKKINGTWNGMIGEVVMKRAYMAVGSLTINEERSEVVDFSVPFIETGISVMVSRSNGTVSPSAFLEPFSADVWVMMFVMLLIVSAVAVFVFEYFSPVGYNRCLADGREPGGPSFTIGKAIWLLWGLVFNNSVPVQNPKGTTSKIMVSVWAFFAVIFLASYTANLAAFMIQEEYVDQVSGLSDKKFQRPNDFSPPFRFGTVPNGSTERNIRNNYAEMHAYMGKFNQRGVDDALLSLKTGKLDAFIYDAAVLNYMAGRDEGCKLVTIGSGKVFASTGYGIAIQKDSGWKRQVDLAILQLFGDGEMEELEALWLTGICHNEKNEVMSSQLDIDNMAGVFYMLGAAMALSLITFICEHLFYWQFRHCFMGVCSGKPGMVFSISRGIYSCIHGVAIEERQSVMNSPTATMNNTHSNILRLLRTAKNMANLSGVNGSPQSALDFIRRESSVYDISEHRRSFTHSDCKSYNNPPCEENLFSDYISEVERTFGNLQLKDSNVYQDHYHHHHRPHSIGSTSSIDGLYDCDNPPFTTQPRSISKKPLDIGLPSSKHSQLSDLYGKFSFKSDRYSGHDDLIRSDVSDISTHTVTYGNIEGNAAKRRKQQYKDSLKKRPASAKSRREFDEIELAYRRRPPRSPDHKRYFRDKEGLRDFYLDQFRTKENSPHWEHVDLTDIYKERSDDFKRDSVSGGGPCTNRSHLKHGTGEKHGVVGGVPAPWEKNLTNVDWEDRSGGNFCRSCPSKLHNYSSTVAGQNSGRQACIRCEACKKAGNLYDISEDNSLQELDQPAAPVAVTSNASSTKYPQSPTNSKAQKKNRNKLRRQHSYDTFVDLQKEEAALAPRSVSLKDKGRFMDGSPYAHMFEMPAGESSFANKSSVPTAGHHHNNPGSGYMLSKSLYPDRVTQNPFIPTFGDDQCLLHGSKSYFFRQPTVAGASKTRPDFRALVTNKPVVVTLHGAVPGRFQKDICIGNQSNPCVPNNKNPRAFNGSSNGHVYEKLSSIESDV
Chain of Glutamate NMDA receptor; GRIN1/GRIN2B (Q13224 whole entry, other chains not shown): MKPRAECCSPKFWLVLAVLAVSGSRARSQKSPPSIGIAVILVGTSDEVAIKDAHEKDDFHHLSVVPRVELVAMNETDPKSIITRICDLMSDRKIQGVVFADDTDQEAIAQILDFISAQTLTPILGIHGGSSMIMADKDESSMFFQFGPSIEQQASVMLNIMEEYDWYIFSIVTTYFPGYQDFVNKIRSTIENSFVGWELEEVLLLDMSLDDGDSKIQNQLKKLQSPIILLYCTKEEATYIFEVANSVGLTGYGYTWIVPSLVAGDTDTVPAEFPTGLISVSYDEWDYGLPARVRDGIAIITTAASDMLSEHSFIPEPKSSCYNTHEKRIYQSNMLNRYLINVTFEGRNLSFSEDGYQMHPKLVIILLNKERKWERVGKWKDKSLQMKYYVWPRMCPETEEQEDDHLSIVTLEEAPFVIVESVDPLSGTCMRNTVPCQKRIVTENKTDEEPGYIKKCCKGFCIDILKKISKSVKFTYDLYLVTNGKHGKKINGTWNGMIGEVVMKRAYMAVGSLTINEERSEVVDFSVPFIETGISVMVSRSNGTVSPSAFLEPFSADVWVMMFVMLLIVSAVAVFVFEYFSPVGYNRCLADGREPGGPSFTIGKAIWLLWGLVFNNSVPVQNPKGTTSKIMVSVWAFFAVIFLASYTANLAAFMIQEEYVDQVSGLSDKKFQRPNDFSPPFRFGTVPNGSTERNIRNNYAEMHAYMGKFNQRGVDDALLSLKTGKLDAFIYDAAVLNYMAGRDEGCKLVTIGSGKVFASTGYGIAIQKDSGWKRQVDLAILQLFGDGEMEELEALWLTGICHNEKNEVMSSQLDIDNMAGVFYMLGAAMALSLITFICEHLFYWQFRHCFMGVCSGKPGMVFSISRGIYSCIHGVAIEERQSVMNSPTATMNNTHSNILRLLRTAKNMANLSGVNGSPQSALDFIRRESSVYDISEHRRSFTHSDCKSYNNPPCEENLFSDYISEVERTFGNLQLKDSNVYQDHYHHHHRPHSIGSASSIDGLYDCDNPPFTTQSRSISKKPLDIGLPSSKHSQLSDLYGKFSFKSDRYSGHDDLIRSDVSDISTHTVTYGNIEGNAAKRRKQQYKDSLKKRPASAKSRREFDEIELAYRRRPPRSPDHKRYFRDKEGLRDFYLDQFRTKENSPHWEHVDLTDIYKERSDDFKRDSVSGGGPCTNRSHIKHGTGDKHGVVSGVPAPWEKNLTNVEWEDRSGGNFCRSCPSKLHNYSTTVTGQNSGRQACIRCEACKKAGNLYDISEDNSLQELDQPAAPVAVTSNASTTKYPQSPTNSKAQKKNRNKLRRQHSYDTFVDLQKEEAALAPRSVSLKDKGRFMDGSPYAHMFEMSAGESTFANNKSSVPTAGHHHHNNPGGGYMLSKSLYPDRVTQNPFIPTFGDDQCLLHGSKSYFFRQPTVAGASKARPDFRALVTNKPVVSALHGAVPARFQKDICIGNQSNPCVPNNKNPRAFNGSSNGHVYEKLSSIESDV

| Compound | Ki [1] [nM] | also measured |
| --- | --- | --- |
| O=C1OC(CCCN2CCN(C(=O)c3ccc(C(F)(F)F)cc3)CC2)c2ccc(O)cc21 (stereo unspecified) | 32.1 |  |
| O=C1OC(CCCN2CCN(C(=O)c3nc4ccccc4[nH]3)CC2)c2ccccc21 (stereo unspecified) | 73.4 |  |
| O=C1OC(CCCN2CCN(C(=O)c3cc4ccc(Cl)cc4[nH]3)CC2)c2ccccc21 (stereo unspecified) | 16.7 |  |
| O=C1OC(CCCN2CCN(C(=O)c3ccc(Cl)cc3)CC2)c2ccccc21 (stereo unspecified) | 12.7 |  |
| Cc1cccc2cc(C(=O)N3CCN(CCCC4OC(=O)c5ccccc54)CC3)[nH]c12 (stereo unspecified) | 27.9 |  |
| O=C1OC(CCCN2CCN(c3ccc(C(F)(F)F)cc3)CC2)c2ccccc21 (stereo unspecified) | 42.9 |  |
| Cc1ccc2c(c1)CN(CCCC1OC(=O)c3ccccc31)CC2 (stereo unspecified) |  | Activity [2]: 32.4% |
| O=C1OC(CCCN2CCN(c3ccc(O)cc3)CC2)c2ccc(O)cc21 (stereo unspecified) | 6.26 |  |
| O=C1OC(CCCN2CCN(c3ccccn3)CC2)c2ccccc21 (stereo unspecified) |  | Activity ([2]; filed as antagonist): 42.2% |
| Cc1cccc(N2CCN(CCCC3OC(=O)c4ccccc43)CC2)c1 (stereo unspecified) | 36.8 |  |
| O=C1OC(CCCN2CCN(c3ccccc3C(F)(F)F)CC2)c2ccccc21 (stereo unspecified) | 25.9 |  |
| O=C1OC(CCCN2CCN(C(=O)c3ccc(F)cc3)CC2)c2ccccc21 (stereo unspecified) | 31.1 |  |
| O=C1OC(CCCN2CCN(C(=O)c3c[nH]cn3)CC2)c2ccccc21 (stereo unspecified) | 13.4 |  |
| O=C1OC(CCCN2CCN(C(=O)c3cc4ccccc4[nH]3)CC2)c2ccccc21 (stereo unspecified) | 7.97 |  |
| O=C1OC(CCCN2CCN(C(=O)c3ccccn3)CC2)c2ccccc21 (stereo unspecified) | 45.1 |  |
| O=C1OC(CCCN2CCc3ccccc3C2)c2ccccc21 (stereo unspecified) |  | Activity [2]: 22.2% |
| CS(=O)(=O)Nc1ccc2c(c1)C(=O)OC2CCCN1CCN(C(=O)c2ccc(C(F)(F)F)cc2)CC1 (stereo unspecified) | 15.2 |  |
| O=C1OC(CCCN2CCN(C(=O)c3cc4cccnc4[nH]3)CC2)c2ccccc21 (stereo unspecified) | 49.7 |  |
| CC(C(O)c1ccc(O)cc1)N1CCC(Cc2ccccc2)CC1 (stereo unspecified) [IFENPRODIL] |  | viability at 0.1 µM [3]: 65.9%; viability at 10 µM [4]: 84.8%; viability at 1 µM [5]: 77% |
| O=C1OC(CCCN2CCN(c3ccccc3)CC2)c2ccccc21 (stereo unspecified) | 13.9 | Activity ([2]; filed as antagonist): 75.4% |
| NC(=O)c1coc2ccc(N3CCN(CCCC4OC(=O)c5ccccc54)CC3)cc12 (stereo unspecified) |  | Activity ([2]; filed as antagonist): 47.1% |
| Cc1ccc(C(=O)N2CCN(CCCC3OC(=O)c4ccccc43)CC2)cc1 (stereo unspecified) | 1.34 |  |

| Compound | Ki [1] [nM] | also measured |
| --- | --- | --- |
| Cc1ccc(N2CCN(CCCC3OC(=O)c4ccccc43)CC2)cc1C (stereo unspecified) | 29.2 |  |
| O=C1OC(CCCN2Cc3ccccc3C2)c2ccccc21 (stereo unspecified) |  | Activity [2]: 26.7% |
| O=C1OC(CCCN2CCN(c3ccc([N+](=O)[O-])cc3)CC2)c2ccccc21 (stereo unspecified) | 3.77 |  |
| COc1ccc2cc(C(=O)N3CCN(CCCC4OC(=O)c5ccccc54)CC3)[nH]c2c1 (stereo unspecified) | 53.2 |  |
| Cc1ccc(C(=O)N2CCN(CCCC3OC(=O)c4cc(O)ccc43)CC2)cc1 (stereo unspecified) | 36.2 |  |
| O=C(O)c1ccccc1C(O)CCCN1CCN(C(=O)C2Cc3cccc(Cl)c3N2)CC1 (stereo unspecified) | 1.28 |  |
| O=C1OC(CCCN2CCN(C(=O)c3ccc(C(F)(F)F)cc3)CC2)c2cc(O)ccc21 (stereo unspecified) | 8.22 |  |
| O=C1OC(CCCN2CCc3ccccc3C2c2ccccc2)c2ccccc21 (stereo unspecified) |  | Activity [2]: 36.4% |
| O=C1OC(CCCN2CCN(C(=O)c3ccccc3)CC2)c2ccccc21 (stereo unspecified) | 32.8 |  |
| O=C1OC(CCCN2CCN(C(=O)c3cc4cnccc4[nH]3)CC2)c2ccccc21 (stereo unspecified) | 32.8 |  |
| COc1ccc(N2CCN(CCCC3OC(=O)c4ccccc43)CC2)cc1 (stereo unspecified) | 24.3 |  |
| O=C1OC(CCCN2CCN(c3cccc(Cl)c3)CC2)c2ccccc21 (stereo unspecified) | 20.8 |  |
| O=C1OC(CCCN2CCN(C(=O)c3cccnc3)CC2)c2ccccc21 (stereo unspecified) | 23.5 |  |
| COc1ccccc1N1CCN(CCCC2OC(=O)c3ccccc32)CC1 (stereo unspecified) | 8.15 |  |
| O=C1OC(CCCN2CCN(c3ccc(O)cc3)CC2)c2ccccc21 (stereo unspecified) | 26.8 |  |
| O=C1OC(CCCN2CCN(c3nsc4ccccc34)CC2)c2ccccc21 (stereo unspecified) |  | Activity [2]: 15.7% |
| CN(C)CCCC1OC(=O)c2ccccc21 (stereo unspecified) | 114 | IC50 at 48 h [6]: > 300000 nM; IC50 at 48 h [7]: > 300000 nM; IC50 at 48 h [8]: > 300000 nM; IC50 at 48 h [9]: > 300000 nM; IC50 [10]: > 10000 nM |
| O=C1OC(CCCN2CCN(C(=O)c3ccc(C(F)(F)F)cc3)CC2)c2ccccc21 (stereo unspecified) | 2.6 |  |
| O=C1OC(CCCN2CCN(C(=O)c3cc4ccncc4[nH]3)CC2)c2ccccc21 (stereo unspecified) | 25.4 |  |
| CS(=O)(=O)Nc1ccc2c(c1)C(=O)OC2CCCN1CCN(c2ccc(O)cc2)CC1 (stereo unspecified) | 19.6 |  |
| O=C1OC(CCCN2CCN(c3ccc(Cl)cc3)CC2)c2ccccc21 (stereo unspecified) | 25.6 |  |
| Cc1ccccc1N1CCN(CCCC2OC(=O)c3ccccc32)CC1 (stereo unspecified) | 11.3 |  |

| Compound | Ki [1] [nM] | also measured |
| --- | --- | --- |
| O=C1OC(CCCN2CCN(c3ncccn3)CC2)c2ccccc21 (stereo unspecified) |  | Activity [2]: 30.9% |
| O=C1OC(CCCN2CCN(c3ccccc3F)CC2)c2ccccc21 (stereo unspecified) | 23.6 |  |
| O=C1OC(CCCN2CCN(c3ccc(F)cc3)CC2)c2ccccc21 (stereo unspecified) | 9.39 |  |
| Cc1ccc(N2CCN(CCCC3OC(=O)c4cc(NS(C)(=O)=O)ccc43)CC2)cc1 (stereo unspecified) | 12.4 |  |
| O=C1OC(CCCN2C[C@H]3C[C@@]3(c3ccc(Cl)c(Cl)c3)C2)c2ccccc21 (stereo partly specified) | 33.6 | Activity ([2]; filed as antagonist): 76% |
| O=C1OC(CCCN2CCc3ccccc32)c2ccccc21 (stereo unspecified) |  | Activity [2]: 24.5%; Activity ([2]; filed as antagonist): 47.1% |
| CC(C)c1ccc(N2CCN(CCCC3OC(=O)c4ccccc43)CC2)cc1 (stereo unspecified) | 2.89 |  |
| COc1cccc(C(=O)N2CCN(CCCC3OC(=O)c4ccccc43)CC2)c1 (stereo unspecified) | 34.6 |  |
| O=C1OC(CCCN2CCN(C(=O)c3cc4cccc(Cl)c4[nH]3)CC2)c2cc(O)ccc21 (stereo unspecified) | 1.12 | inhibition (INH) [11]: Active; IC50 [10]: 183 nM |
| O=C1OC(CCCN2CCN(C(=O)c3cc[nH]c3)CC2)c2ccccc21 (stereo unspecified) | 13 |  |
| O=C1OC(CCCN2CCN(C(=O)c3ccncc3)CC2)c2ccccc21 (stereo unspecified) | 12.1 |  |
| COc1cccc(N2CCN(CCCC3OC(=O)c4ccccc43)CC2)c1 (stereo unspecified) | 30.9 |  |
| COc1ccc2[nH]c(C(=O)N3CCN(CCCC4OC(=O)c5ccccc54)CC3)cc2c1 (stereo unspecified) | 26 |  |
| CS(=O)(=O)Nc1ccc2c(c1)C(=O)OC2CCCN1CCN(C(=O)c2cc3cccc(Cl)c3[nH]2)CC1 (stereo unspecified) | 4.23 |  |
| Cc1ccc(C(=O)N2CCN(CCCC3OC(=O)c4cc(NS(C)(=O)=O)ccc43)CC2)cc1 (stereo unspecified) | 13.2 |  |
| Cc1ccc(N2CCN(CCCC3OC(=O)c4ccc(O)cc43)CC2)cc1 (stereo unspecified) | 15.1 |  |
| O=C1OC(CCCN2CCN(c3ccc(Br)cc3)CC2)c2ccccc21 (stereo unspecified) | 26.5 |  |
| Cc1ccc(N2CCN(CCCC3OC(=O)c4ccccc43)CC2)cc1 (stereo unspecified) | 6.12 |  |
| O=C1OC(CCCN2CCN(c3csc4ccccc34)CC2)c2ccccc21 (stereo unspecified) |  | Activity [2]: 36.6% |
| COc1ccc(C(=O)N2CCN(CCCC3OC(=O)c4ccccc43)CC2)cc1 (stereo unspecified) | 46.7 |  |
